According to ChEMBL document CHEMBL3745697, “Identification of azabenzimidazoles as potent JAK1 selective inhibitors” (Bioorg Med Chem Lett, 2016):
Active and inactive are the calls of the source. No cut-off for these calls is given here.

Legend:
[1] = target: T1, Tyrosine-protein kinase JAK1 (Homo sapiens, UniProt P23458); assay: Inhibition of N-terminal GST-fused human recombinant JAK1 (866 to 1154 residues) expressed in insect cells using FITC-C6-KKHTDDGYMPMSPGVA-NH2 as substrate by microfluidic capillary electrophoresis method
T1 sequence (P23458 whole entry, the tested form may be a part): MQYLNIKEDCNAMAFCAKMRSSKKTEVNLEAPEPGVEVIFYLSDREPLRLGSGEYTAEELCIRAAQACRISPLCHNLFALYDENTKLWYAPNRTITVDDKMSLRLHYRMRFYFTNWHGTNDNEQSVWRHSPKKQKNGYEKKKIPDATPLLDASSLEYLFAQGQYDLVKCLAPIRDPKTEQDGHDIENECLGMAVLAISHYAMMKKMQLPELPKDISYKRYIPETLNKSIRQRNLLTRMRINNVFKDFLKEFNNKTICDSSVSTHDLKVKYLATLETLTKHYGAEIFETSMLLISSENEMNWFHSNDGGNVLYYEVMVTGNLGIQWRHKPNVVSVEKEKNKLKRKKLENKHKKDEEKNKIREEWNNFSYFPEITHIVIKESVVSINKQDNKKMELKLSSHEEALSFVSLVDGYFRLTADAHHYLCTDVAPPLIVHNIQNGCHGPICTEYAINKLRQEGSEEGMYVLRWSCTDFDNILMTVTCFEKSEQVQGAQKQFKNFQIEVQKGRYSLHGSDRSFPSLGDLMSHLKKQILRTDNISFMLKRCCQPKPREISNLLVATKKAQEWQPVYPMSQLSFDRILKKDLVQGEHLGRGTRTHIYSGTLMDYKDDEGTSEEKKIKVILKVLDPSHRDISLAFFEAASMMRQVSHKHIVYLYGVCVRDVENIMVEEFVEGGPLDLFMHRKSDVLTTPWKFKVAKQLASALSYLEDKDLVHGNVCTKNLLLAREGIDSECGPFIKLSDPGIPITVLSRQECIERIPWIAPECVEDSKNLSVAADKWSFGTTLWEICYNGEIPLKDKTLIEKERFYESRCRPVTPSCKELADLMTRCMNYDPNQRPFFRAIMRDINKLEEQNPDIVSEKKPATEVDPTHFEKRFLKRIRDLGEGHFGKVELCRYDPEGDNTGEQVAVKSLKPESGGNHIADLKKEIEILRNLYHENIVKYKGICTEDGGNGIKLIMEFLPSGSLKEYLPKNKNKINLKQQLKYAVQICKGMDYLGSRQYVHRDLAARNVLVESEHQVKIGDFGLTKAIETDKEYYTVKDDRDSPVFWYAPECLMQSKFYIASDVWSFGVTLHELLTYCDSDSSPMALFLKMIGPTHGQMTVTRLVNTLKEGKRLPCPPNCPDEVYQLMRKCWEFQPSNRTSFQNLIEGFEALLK

[2] = target: T2, Tyrosine-protein kinase JAK2 (Homo sapiens, UniProt O60674); assay: Inhibition of N-terminal GST-fused recombinant JAK2 (831 to 1132 residues) (unknown origin) expressed in insect cells using 5FAM-GEEPLYWSFPAKKK-NH2 as substrate by microfluidic capillary electrophoresis method
T2 sequence (O60674 whole entry, the tested form may be a part): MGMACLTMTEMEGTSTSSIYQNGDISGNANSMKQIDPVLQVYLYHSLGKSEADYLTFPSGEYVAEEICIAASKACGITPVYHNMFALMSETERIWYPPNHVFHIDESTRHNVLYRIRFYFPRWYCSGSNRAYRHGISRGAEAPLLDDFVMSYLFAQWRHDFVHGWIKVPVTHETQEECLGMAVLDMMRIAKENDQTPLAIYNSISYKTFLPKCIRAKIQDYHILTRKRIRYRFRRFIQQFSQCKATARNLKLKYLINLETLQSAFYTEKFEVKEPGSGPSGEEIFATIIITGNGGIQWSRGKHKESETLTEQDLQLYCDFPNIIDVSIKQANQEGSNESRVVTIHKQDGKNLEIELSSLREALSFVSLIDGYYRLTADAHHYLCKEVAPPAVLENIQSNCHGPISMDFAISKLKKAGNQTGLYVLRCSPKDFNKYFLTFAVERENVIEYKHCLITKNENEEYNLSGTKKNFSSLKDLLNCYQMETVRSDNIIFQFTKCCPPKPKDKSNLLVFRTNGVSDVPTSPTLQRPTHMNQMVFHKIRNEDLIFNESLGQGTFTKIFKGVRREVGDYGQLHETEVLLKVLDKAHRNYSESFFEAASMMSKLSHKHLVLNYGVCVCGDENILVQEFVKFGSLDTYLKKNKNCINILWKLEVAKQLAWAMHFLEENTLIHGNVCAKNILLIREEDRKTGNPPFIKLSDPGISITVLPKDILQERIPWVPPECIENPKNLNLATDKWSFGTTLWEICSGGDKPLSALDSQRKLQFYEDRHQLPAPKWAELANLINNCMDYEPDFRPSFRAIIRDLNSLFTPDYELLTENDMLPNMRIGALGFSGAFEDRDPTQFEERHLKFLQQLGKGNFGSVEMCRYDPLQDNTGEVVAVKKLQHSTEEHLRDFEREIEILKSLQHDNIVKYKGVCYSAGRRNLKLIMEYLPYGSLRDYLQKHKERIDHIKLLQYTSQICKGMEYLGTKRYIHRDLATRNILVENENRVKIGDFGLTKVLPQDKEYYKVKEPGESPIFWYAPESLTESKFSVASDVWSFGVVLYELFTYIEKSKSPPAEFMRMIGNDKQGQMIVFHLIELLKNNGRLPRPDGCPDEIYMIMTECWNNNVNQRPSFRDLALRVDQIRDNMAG

[3] = target: T3, Tyrosine-protein kinase JAK3 (Homo sapiens, UniProt P52333); assay: Inhibition of N-terminal GST-fused recombinant JAK3 (781 to 1124 residues) (unknown origin) expressed in insect cells using 5FAM-GEEPLYWSFPAKKK-NH2 as substrate by microfluidic capillary electrophoresis method
T3 sequence (P52333 whole entry): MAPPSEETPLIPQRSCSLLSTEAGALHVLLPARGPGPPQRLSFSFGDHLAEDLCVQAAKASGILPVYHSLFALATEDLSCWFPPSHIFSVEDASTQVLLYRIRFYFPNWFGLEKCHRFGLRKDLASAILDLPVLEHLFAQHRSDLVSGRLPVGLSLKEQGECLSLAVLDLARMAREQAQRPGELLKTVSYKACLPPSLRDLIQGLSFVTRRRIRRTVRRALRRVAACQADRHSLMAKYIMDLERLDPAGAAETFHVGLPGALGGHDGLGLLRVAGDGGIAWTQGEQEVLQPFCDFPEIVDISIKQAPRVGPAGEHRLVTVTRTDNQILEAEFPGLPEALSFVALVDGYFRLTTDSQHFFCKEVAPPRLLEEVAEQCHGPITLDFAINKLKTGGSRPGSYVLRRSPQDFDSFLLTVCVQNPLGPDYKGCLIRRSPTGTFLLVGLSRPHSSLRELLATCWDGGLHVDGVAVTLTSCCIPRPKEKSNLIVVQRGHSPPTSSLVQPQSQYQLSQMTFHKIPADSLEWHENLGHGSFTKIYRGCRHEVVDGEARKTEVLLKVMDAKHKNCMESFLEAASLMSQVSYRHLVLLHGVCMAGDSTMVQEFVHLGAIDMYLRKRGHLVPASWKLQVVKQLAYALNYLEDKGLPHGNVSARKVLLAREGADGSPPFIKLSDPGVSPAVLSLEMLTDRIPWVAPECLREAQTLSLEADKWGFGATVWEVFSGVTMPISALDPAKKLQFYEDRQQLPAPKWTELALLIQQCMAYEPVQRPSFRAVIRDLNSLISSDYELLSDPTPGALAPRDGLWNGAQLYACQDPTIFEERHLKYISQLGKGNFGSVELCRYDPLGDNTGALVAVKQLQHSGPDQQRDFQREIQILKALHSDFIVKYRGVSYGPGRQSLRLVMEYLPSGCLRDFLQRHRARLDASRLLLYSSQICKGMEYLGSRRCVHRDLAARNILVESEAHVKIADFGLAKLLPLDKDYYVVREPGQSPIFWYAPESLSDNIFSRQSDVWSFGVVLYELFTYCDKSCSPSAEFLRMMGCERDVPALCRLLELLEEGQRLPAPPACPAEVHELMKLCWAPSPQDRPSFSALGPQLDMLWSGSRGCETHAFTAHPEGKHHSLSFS

Homo sapiens = species on record: Homo sapiens; assay: Selectivity ratio of IC50 for N-terminal GST-fused recombinant JAK2 (831 to 1132 residues) (unknown origin) to N-terminal GST-fused human recombinant JAK1 (866 to 1154 residues)
[4] = target: T1, Tyrosine-protein kinase JAK1; assay: Inhibition of JAK1 in human NCI-H1975 cells assessed as reduction in STAT3 phosphorylation after 2 hrs; format: cell-based
[5] = target: T2, Tyrosine-protein kinase JAK2; assay: Inhibition of JAK2 in human HEL 92.1.7 cells assessed as reduction in STAT5 phosphorylation after 2 hrs by Western blot analysis; format: cell-based
[6] = target: T1, Tyrosine-protein kinase JAK1; assay: Inhibition of JAK1 in human NCI-H1975 cells assessed as reduction in STAT3 phosphorylation at 0.003 to 3 uM after 2 hrs by Western blot analysis; format: cell-based
Aurora kinase B = Aurora kinase B (Homo sapiens, UniProt Q96GD4); assay: Inhibition of GST-INCENP activated N-terminal 6His-tagged human recombinant full length Aurora B (1 to 344 residues) expressed in baculovirus expression system using 5FAM-LRRASLG as substrate by microfluidic capillary electrophoresis method
Sequence of Aurora kinase B (Q96GD4 whole entry, the tested form may be a part): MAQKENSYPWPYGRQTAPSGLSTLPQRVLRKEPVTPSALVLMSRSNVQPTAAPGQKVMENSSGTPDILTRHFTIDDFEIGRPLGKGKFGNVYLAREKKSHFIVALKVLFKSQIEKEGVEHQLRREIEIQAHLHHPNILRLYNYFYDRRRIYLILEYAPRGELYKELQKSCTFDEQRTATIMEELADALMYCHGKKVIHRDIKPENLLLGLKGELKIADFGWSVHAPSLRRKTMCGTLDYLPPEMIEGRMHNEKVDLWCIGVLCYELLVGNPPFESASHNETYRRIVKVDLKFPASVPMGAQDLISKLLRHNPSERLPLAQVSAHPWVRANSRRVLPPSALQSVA

[7] = target: Cyclin-dependent kinase 2/cyclin E1 (Homo sapiens, UniProt P24941); assay: Inhibition of N-terminal 6His-tagged human recombinant full length CDK2 (1 to 304 residues)/Cyclin E1 (1 to 410 residues) expressed in insect cells using FL-Ahx-QSPKKG-CONH2 as substrate by microfluidic capillary electrophoresis method
[8] = target: Non-receptor tyrosine-protein kinase TYK2 (Homo sapiens, UniProt P29597); assay: Inhibition of N-terminal 6His-tagged human recombinant Tyk2
Sequence of Non-receptor tyrosine-protein kinase TYK2 (P29597 whole entry): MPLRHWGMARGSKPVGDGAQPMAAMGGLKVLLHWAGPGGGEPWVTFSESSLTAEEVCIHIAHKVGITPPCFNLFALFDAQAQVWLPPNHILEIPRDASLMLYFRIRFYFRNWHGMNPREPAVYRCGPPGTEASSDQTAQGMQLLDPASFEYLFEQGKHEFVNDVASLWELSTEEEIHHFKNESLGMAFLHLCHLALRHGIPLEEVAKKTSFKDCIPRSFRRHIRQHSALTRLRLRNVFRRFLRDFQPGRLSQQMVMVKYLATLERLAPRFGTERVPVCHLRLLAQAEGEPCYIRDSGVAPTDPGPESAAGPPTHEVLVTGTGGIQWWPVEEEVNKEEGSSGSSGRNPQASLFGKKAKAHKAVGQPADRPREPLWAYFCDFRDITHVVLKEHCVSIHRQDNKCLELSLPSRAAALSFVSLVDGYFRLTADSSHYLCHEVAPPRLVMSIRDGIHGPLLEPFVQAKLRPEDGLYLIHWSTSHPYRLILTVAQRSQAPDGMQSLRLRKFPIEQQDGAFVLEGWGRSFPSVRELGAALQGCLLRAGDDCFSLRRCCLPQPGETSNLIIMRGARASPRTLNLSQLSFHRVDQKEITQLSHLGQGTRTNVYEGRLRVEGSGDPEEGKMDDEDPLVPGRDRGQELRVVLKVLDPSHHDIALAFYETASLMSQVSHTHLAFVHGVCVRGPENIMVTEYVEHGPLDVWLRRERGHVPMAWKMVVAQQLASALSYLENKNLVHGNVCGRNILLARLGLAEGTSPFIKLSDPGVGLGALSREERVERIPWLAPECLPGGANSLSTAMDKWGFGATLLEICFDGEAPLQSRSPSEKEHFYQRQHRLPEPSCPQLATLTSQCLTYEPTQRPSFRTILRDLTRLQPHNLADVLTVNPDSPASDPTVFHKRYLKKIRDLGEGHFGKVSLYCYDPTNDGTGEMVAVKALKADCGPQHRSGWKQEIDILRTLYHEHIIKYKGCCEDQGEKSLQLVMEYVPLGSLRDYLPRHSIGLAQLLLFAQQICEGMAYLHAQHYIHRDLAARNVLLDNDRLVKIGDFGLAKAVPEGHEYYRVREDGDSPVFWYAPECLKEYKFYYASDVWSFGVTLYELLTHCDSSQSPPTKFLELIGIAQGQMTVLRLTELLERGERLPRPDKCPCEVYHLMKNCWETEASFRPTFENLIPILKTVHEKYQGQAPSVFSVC

[9] = Cell cycle arrest in human SW620 cells assessed as accumulation at Sub G1 phase at 1 uM after 24 hrs by propidium iodide staining-based flow cytometric analysis (reference value: 1.6%); format: functional; conditions: SW-620
[10] = Cell cycle arrest in human SW620 cells assessed as multi-nuclear cells at 10 uM after 24 hrs by propidium iodide staining-based flow cytometric analysis (reference value: 5%); format: functional; conditions: SW-620
[11] = Cell cycle arrest in human SW620 cells assessed as accumulation at G2/M phase at 10 uM after 24 hrs by propidium iodide staining-based flow cytometric analysis (reference value: 17.4%); format: functional; conditions: SW-620
[12] = Cell cycle arrest in human SW620 cells assessed as accumulation at Sub G1 phase at 10 uM after 24 hrs by propidium iodide staining-based flow cytometric analysis (reference value: 1.6%); format: functional; conditions: SW-620
[13] = Cell cycle arrest in human SW620 cells assessed as accumulation at G1 phase at 10 uM after 24 hrs by propidium iodide staining-based flow cytometric analysis (reference value: 61.4%); format: functional; conditions: SW-620
[14] = Cell cycle arrest in human SW620 cells assessed as accumulation at S phase at 1 uM after 24 hrs by propidium iodide staining-based flow cytometric analysis (reference value: 13.9%); format: functional; conditions: SW-620
[15] = Cell cycle arrest in human SW620 cells assessed as accumulation at G1 phase at 1 uM after 24 hrs by propidium iodide staining-based flow cytometric analysis (reference value: 61.4%); format: functional; conditions: SW-620
[16] = Cell cycle arrest in human SW620 cells assessed as accumulation at G2/M phase at 1 uM after 24 hrs by propidium iodide staining-based flow cytometric analysis (reference value: 17.4%); format: functional; conditions: SW-620
[17] = Cell cycle arrest in human SW620 cells assessed as accumulation at S phase at 10 uM after 24 hrs by propidium iodide staining-based flow cytometric analysis (reference value: 13.9%); format: functional; conditions: SW-620
[18] = Cell cycle arrest in human SW620 cells assessed as multi-nuclear cells at 1 uM after 24 hrs by propidium iodide staining-based flow cytometric analysis (reference value: 5%); format: functional; conditions: SW-620

SMILES | IC50 [1] | IC50 [2] | IC50 [3] | Ratio IC50 (Homo sapiens) | other results
COc1ccc(-c2nc3c(N(C)CC4CCNCC4)c(Cl)cnc3[nH]2)cc1 | 872 nM | > 30000 nM | > 30000 nM | > 34 | 
COc1ccc(-c2nc3c(NCCO)c(Cl)cnc3[nH]2)cc1 | 5230 nM | > 30000 nM | > 30000 nM | 2 | 
COc1ccc(F)c(-c2nc3c(NCC4CCN(C)CC4)c(Cl)cnc3[nH]2)c1 | 275 nM | > 30000 nM | > 30000 nM | > 109 | 
COc1ccc(-c2nc3c(NCC4CCN(C)CC4)c(Cl)cnc3[nH]2)cc1 | 317 nM | 9620 nM | > 30000 nM | 30 | 
COc1ccc(-c2nc3c(NCC4CCNCC4)c(Cl)cnc3[nH]2)c(C)c1 | 9 nM | 2890 nM | 1540 nM | 314 | IC50 [4]: 37 nM
COc1ccc(-c2nc3c(NCC4CCN(C)CC4)c(C(N)=O)cnc3[nH]2)cc1 | 977 nM | 10300 nM | 4500 nM | 10 | 
COc1ccc(-c2nc3c(NCC4CCN(C)CC4)c(Cl)cnc3[nH]2)c(C)c1 | 36 nM | 2700 nM | 6600 nM | 75 | 
COc1ccc(-c2nc3c(OCC4CCNCC4)c(Cl)cnc3[nH]2)cc1 | 177 nM | 10100 nM | 2780 nM | 57 | 
CN1CCC(CNc2c(Cl)cnc3[nH]c(-c4cccc(F)c4)nc23)CC1 | 832 nM | 16200 nM | > 30000 nM | 19 | 
CN1CCC(CNc2c(Cl)cnc3[nH]c(-c4cccc(S(C)(=O)=O)c4)nc23)CC1 | 4910 nM | > 30000 nM | > 30000 nM | > 6 | 
COc1ccc(-c2nc3c(NCC4CCN(C)CC4)c(Cl)cnc3[nH]2)cc1OC | 73 nM | 9900 nM | > 30000 nM | 137 | 
COc1ccccc1-c1nc2c(NCC3CCN(C)CC3)c(Cl)cnc2[nH]1 | 12200 nM | > 30000 nM | > 30000 nM | 2 | 
COCCN1CCC(CNc2c(Cl)cnc3[nH]c(-c4ccc(OC)cc4)nc23)CC1 | 801 nM | > 22000 nM | > 30000 nM | > 28 | 
CNc1c(Cl)cnc2[nH]c(-c3ccc(OC)cc3)nc12 | > 30000 nM | > 30000 nM | > 30000 nM |  | 
CN1CCC(CNc2c(Cl)cnc3[nH]c(-c4ccc(S(C)(=O)=O)cc4)nc23)CC1 | 356 nM | 2780 nM | 27600 nM | 8 | 
COc1ccc(-c2nc3c(NCC4CCNC4)c(Cl)cnc3[nH]2)cc1 (stereo not given) | 199 nM | 13900 nM | > 22000 nM | 70 | 

SMILES | IC50 [1] | IC50 [2] | IC50 [3] | Ratio IC50 (Homo sapiens) | other results
COc1ccc(-c2nc3c(NCC4CCNCC4)c(Cl)cnc3[nH]2)cc1 | 17 nM | 1450 nM | 1130 nM | 85 | IC50 [4]: 29 nM
COc1ccc(-c2nc3c(NCC4CCCNC4)c(Cl)cnc3[nH]2)cc1 (stereo not given) | 138 nM | 3040 nM | 5750 nM | 22 | 
COc1cccc(-c2nc3c(NCC4CCN(C)CC4)c(Cl)cnc3[nH]2)c1 | 274 nM | 16200 nM | > 30000 nM | 59 | 
Cc1cc(Nc2nc(N[C@@H](C)c3ncc(F)cn3)ncc2Cl)[nH]n1 |  |  |  |  | inhibition [5]: Active; inhibition [6]: Active
COc1ccc(-c2nc3c(NCC4CCN(C)CC4)c(Br)cnc3[nH]2)cc1 | 177 nM |  | 19200 nM |  | 
COCCNc1c(Cl)cnc2[nH]c(-c3ccc(OC)cc3)nc12 | 2100 nM | > 30000 nM | > 30000 nM | > 14 | 
COc1ccc(F)c(-c2nc3c(NCC4CCNCC4)c(Cl)cnc3[nH]2)c1 | 49 nM | 13100 nM | 6140 nM | 267 | IC50 [4]: 76 nM; IC50 (Aurora kinase B): 157 nM; IC50 [7]: 76 nM; IC50 [8]: 11400 nM
COc1cc(F)c(-c2nc3c(NCC4CCNCC4)c(Cl)cnc3[nH]2)cc1F | 173 nM | > 17000 nM | 7470 nM | > 99 | IC50 [4]: 71 nM
COc1ccc(-c2nc3c(NCC4CCNCC4)c(Cl)cnc3[nH]2)c(F)c1 | 106 nM | 11800 nM | 6900 nM | 110 | IC50 [4]: 34 nM
COc1ccc(-c2nc3c(NCC4CCNCC4)c(Cl)cnc3[nH]2)cc1OC | 4.9 nM | 2270 nM | 1200 nM | 463 | IC50 [4]: 87 nM; IC50 (Aurora kinase B): 16 nM; IC50 [7]: 57 nM; IC50 [8]: 1280 nM
COc1ccc(-c2nc3c(NC4CCN(C(C)=O)CC4)c(Cl)cnc3[nH]2)cc1 | > 30000 nM | > 30000 nM | > 30000 nM |  | 
COc1ccc(-c2nc3c(NC4CCN(C)CC4)c(Cl)cnc3[nH]2)cc1 | 561 nM | 14900 nM | 16900 nM | 27 | 
Cc1cc(Nc2cc(N3CCN(C)CC3)nc(Sc3ccc(NC(=O)C4CC4)cc3)n2)n[nH]1 |  |  |  |  | Activity [9]: 12.5%; Activity [10]: 15.5%; Activity [11]: 60.3%; Activity [12]: 18.2%; Activity [13]: 4.5%; Activity [14]: 0.9%; Activity [15]: 2.6%; Activity [16]: 57.3%; Activity [17]: 1.6%; Activity [18]: 26.6%
COc1ccc(-c2nc3c(NCC4CCN(C)CC4)c(C#N)cnc3[nH]2)cc1 | 4510 nM | > 30000 nM | > 30000 nM | > 6 | 
COc1ccc(-c2nc3c(NCC4CCNCC4)ccnc3[nH]2)cc1 | > 30000 nM | > 30000 nM | > 30000 nM |  | 
